# Assay results published in ChEMBL document CHEMBL5038588 (J Med Chem, 2021).
# pIC50: −log10 of the molar value.
# Assays:
# BaF3 [1] = experiment: Inhibition of cell proliferation in mouse BaF3 cells expressing BCR-ABL T315I mutant assessed as cell viability at 100 uM measured after 48 hrs by trypan blue based assay (RVB=100%); format: functional; conditions: read-out: Activity
# KU812 cell line = experiment: Cytotoxicity against human KU812 cells assessed as inhibition of cell growth measured after 72 hrs by MTT assay; format: functional, cell-based; conditions: KU812, 72 h
# U-937 = experiment: Cytotoxicity against human U-937 cells assessed as inhibition of cell growth measured after 72 hrs by MTT assay; format: functional, cell-based; conditions: U-937, 72 h
# Jurkat = experiment: Cytotoxicity against human Jurkat cells assessed as inhibition of cell growth measured after 72 hrs by MTT assay; format: functional, cell-based
# BaF3 [2] = experiment: cells; conditions: Mus musculus, BaF3, 72 h
# Description: Cytotoxicity against mouse BAF3 cells expressing native BCR-ABL assessed as inhibition of cell growth measured after 72 hrs by MTT assay
# BaF3 [3] = experiment: cells; conditions: Mus musculus, BaF3, 48 h
# Description: Cytotoxicity against mouse BAF3 cells expressing BCR-ABL T315I mutant assessed as inhibition of cell growth measured after 48 hrs by trypan blue assay
# K562 = experiment: cells; conditions: Homo sapiens, K562, 72 h
# Description: Cytotoxicity against human K562 cells assessed as cell growth inhibition measured after 72 hrs by MTT assay
Compound,viability at 100 µM (BaF3 [1]) [%],other results
CC(C)Nc1ccc(C#Cc2cc(-c3nc4ccc(CN5CCN(C)CC5)cc4[nH]3)ccc2Cl)nn1,100,–
Cc1ccc(-c2nc3ccc(CN4CCN(C)CC4)cc3[nH]2)cc1C#Cc1ccc(NC2CC2)nn1,88.9,–
CN1CCN(Cc2ccc3nc(-c4ccc(Cl)c(C#Cc5cnc(NC6CC6)nc5)c4)[nH]c3c2)CC1,105,–
Cc1ccc(NC(=O)c2ccc(CN3CCN(C)CC3)cc2)cc1Nc1nccc(-c2cccnc2)n1 [IMATINIB],–,pIC50 (KU812 cell line): 7.29; pIC50 (U-937): < 6.00; pIC50 (Jurkat): < 6.00; pIC50 (BaF3 [2]): < 7.00; pIC50 (BaF3 [3]): < 7.00; pIC50 (K562): 7.08
CN1CCN(Cc2ccc3nc(-c4ccc(Cl)c(C#Cc5ccc(NC6CC6)nn5)c4)[nH]c3c2)CC1,74.8,–
CN1CCN(Cc2ccc3nc(-c4ccc(Cl)c(C#Cc5ccc(NC6CCC6)nn5)c4)[nH]c3c2)CC1,97.4,–
Cc1ccc(-c2nc3ccc(CN4CCN(C)CC4)cc3[nH]2)cc1C#Cc1cnc2cccnn12,84.5,–
CN1CCN(Cc2ccc(NC(=O)N3CCCC(C#Cc4cnc5cccnn45)C3)cc2C(F)(F)F)CC1 (stereo not given),84.3,–
Cc1cn(-c2ccc3nc(-c4ccc(C)c(C#Cc5cnc6cccnn56)c4)[nH]c3c2)cn1,94.1,–
Cc1ccc(-c2nc3ccc(CN4CCN(C)CC4)cc3[nH]2)cc1C#Cc1ccc(NC2CCC2)nn1,110,–
